Experimental data published in PubChem BioAssay (NCI).
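Growth conditions: 96-well plates. Treatment: test compound, 48 hours, 5 concentrations. Analysis: linear interpolation between bracketing concentrations; unreached endpoints set to highest concentration. GI50: concentration for 50% inhibition of growth. TGI denotes the concentration required for complete inhibition of growth.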

Key:
Assay in all cases: growth of human tumour cells (NCI), 48 h
[1] = tested on: SF-295 CNS
[2] = tested on: HT29 colon
[3] = tested on: DU-145 prostate
[4] = tested on: CCRF-CEM leukemia
[5] = tested on: NCI-H23 lung
[6] = tested on: PC-3 prostate
[7] = tested on: NCI-H522 lung
[8] = tested on: MDA-MB-435
[9] = tested on: LOX IMVI melanoma
[10] = tested on: SK-OV-3 ovarian
[11] = tested on: SNB-19 CNS
[12] = tested on: OVCAR-8 ovarian
[13] = tested on: OVCAR-5 ovarian
[14] = tested on: M14 melanoma
[15] = tested on: 786-0 renal
[16] = tested on: U251 CNS
[17] = tested on: EKVX NSCLC
[18] = tested on: CAKI-1 renal
[19] = tested on: A549 NSCLC
[20] = tested on: SW-620 colon
[21] = tested on: MOLT-4 leukemia
[22] = tested on: TK-10 renal
[23] = tested on: NCI-H460 lung
[24] = tested on: SF-268 CNS
[25] = tested on: K-562 leukemia
[26] = tested on: SF-539 CNS
[27] = tested on: SK-MEL-2 melanoma
[28] = tested on: RPMI-8226 leukemia
[29] = tested on: UACC-62 melanoma
[30] = tested on: HCT-15 colon
[31] = tested on: MCF7 breast
[32] = tested on: HCC-2998 colon
[33] = tested on: HOP-92 NSCLC
[34] = tested on: NCI/ADR-RES ovarian
[35] = tested on: SK-MEL-28 melanoma
[36] = tested on: SK-MEL-5 melanoma
[37] = tested on: HS 578T breast
[38] = tested on: T-47D breast
[39] = tested on: MDA-MB-231 breast
[40] = tested on: NCI-H226 lung
[41] = tested on: SNB-75 CNS
[42] = tested on: KM12 colon
[43] = tested on: UO-31 renal
[44] = tested on: IGROV1 ovarian
[45] = tested on: COLO 205 colon
[46] = tested on: SN12C renal
[47] = tested on: ACHN renal
[48] = tested on: OVCAR-3 ovarian
[49] = tested on: BT-549 breast
[50] = tested on: RXF 393 renal
[51] = tested on: OVCAR-4 ovarian
[52] = tested on: UACC-257 melanoma
[53] = tested on: HL-60(TB) leukemia
[54] = tested on: MALME-3M melanoma
[55] = tested on: HCT-116 colon
[56] = tested on: A498 renal
[57] = tested on: HOP-62 NSCLC

For `COc1cc(Nc2ncc(-c3ccccc3)o2)cc(OC)c1OC`, the GI50 [1] was 2.7 µM, the TGI [1] was > 25 µM and the GI50 [2] was 0.951 µM. The TGI [2] was > 25 µM, the GI50 [3] was 5.98 µM and the TGI [3] was > 25 µM. For the same molecule, the GI50 [4] was 7.32 µM, the TGI [4] was > 25 µM and the GI50 [5] was 2.84 µM. The TGI [5] was > 25 µM, the GI50 [6] was 7.3 µM and the TGI [6] was > 25 µM. The GI50 [7] was 0.925 µM, the TGI [7] was > 25 µM and the GI50 [8] was 0.154 µM. For the same molecule, the TGI [8] was > 5.89 µM, the GI50 [9] was 2.14 µM and the TGI [9] was > 25 µM. For the same molecule, the GI50 [10] was 2.89 µM, the TGI [10] was > 25 µM and the GI50 [11] was 12.6 µM. For the same molecule, the TGI [11] was > 25 µM, the GI50 [12] was 8.3 µM and the TGI [12] was > 25 µM. For the same molecule, the GI50 [13] was 3.88 µM, the TGI [13] was > 25 µM and the GI50 [14] was 1.26 µM. The TGI [14] was > 25 µM, the GI50 [15] was 5.13 µM and the TGI [15] was > 25 µM. The GI50 [16] was 4.35 µM, the TGI [16] was > 25 µM and the GI50 [17] was > 6.86 µM. The TGI [17] was > 25 µM, the GI50 [18] was 0.37 µM and the TGI [18] was > 25 µM. The GI50 [19] was 1.66 µM, the TGI [19] was > 25 µM and the GI50 [20] was 0.986 µM. The TGI [20] was > 25 µM, the GI50 [21] was 4.36 µM and the TGI [21] was > 25 µM. For the same molecule, the GI50 [22] was 1.62 µM, the TGI [22] was > 25 µM and the GI50 [23] was 0.161 µM. The TGI [23] was > 25 µM, the GI50 [24] was 4.73 µM and the TGI [24] was > 25 µM. For the same molecule, the GI50 [25] was 0.401 µM, the TGI [25] was > 25 µM and the GI50 [26] was 1.53 µM. For the same molecule, the TGI [26] was > 25 µM, the GI50 [27] was 1.52 µM and the TGI [27] was > 11.6 µM. The GI50 [28] was 16.3 µM, the TGI [28] was > 25 µM and the GI50 [29] was 2.24 µM. The TGI [29] was > 25 µM, the GI50 [30] was 0.547 µM and the TGI [30] was > 25 µM. For the same molecule, the GI50 [31] was 0.0695 µM, the TGI [31] was > 25 µM and the GI50 [32] was 5.08 µM. The TGI [32] was > 25 µM, the GI50 [33] was 4.27 µM and the TGI [33] was > 25 µM. The GI50 [34] was 1.38 µM, the TGI [34] was > 25 µM and the GI50 [35] was 4.38 µM. The TGI [35] was > 25 µM, the GI50 [36] was 0.138 µM and the GI50 [37] was 0.278 µM. For the same molecule, the TGI [37] was 4.55 µM, the GI50 [38] was 0.231 µM and the TGI [38] was > 25 µM. For the same molecule, the GI50 [39] was 2.5 µM, the TGI [39] was > 25 µM and the GI50 [40] was 2.97 µM. For the same molecule, the TGI [40] was > 25 µM, the GI50 [41] was 0.577 µM and the TGI [41] was > 19.2 µM. For the same molecule, the GI50 [42] was 0.152 µM, the TGI [42] was > 25 µM and the GI50 [43] was 1.84 µM. For the same molecule, the TGI [43] was > 25 µM, the GI50 [44] was 1.28 µM and the TGI [44] was > 25 µM. For the same molecule, the GI50 [45] was 2.15 µM, the TGI [45] was > 25 µM and the GI50 [46] was 6.35 µM. For the same molecule, the TGI [46] was > 25 µM, the GI50 [47] was 1.18 µM and the TGI [47] was > 25 µM. For the same molecule, the GI50 [48] was 3.94 µM, the TGI [48] was 24.9 µM and the GI50 [49] was 3.24 µM. The TGI [49] was > 25 µM, the GI50 [50] was 0.77 µM and the TGI [50] was 17.4 µM. The GI50 [51] was 1.05 µM, the TGI [51] was > 25 µM and the GI50 [52] was > 15.9 µM. For the same molecule, the TGI [52] was > 25 µM, the GI50 [53] was 0.858 µM and the TGI [53] was > 9.44 µM. For the same molecule, the GI50 [54] was 6.29 µM, the TGI [54] was > 25 µM and the GI50 [55] was 1.45 µM. For the same molecule, the TGI [55] was > 25 µM, the GI50 [56] was 0.607 µM and the TGI [56] was > 7.47 µM. The GI50 [57] was 3.47 µM and the TGI [57] was > 25 µM.
